Assay [1] has as its system KRAS G12C mutant NCI-H358 cells. Description: Cell proliferation inhibition experiment, 3D spheroid, CellTiter-Glo, NCI-H358. The assay is classed as cell-based, human. Conditions: read-out: H358 IC50. A digest of the protocol: (§1)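 Cells seeded in 2% FBS medium in spheroid plates (800 H358 or 400 A549 per well), grown overnight to form 3D spheroids, then exposed to 3.16-fold compound dilutions (0.1% DMSO) for 5 days. CellTiter-Glo luminescence gave inhibition vs DMSO and medium blanks; IC50 by four-parameter fit.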

For assay [2], the system named is A549 cells (KRAS G12S mutant). The assay is described as follows: Cell proliferation inhibition experiment, 3D spheroid, CellTiter-Glo, A549. The assay is classed as cell-based, human. As to conditions: read-out: A549 IC50. A digest of the protocol: as §1
The mark [3] stands for this setting: Homo sapiens, NCI-H358, 120 h, NCI-H358 (KRAS G12C mutant) 3D spheroid, 5 days with compound, CellTiter-Glo.
Setting [4] is: Homo sapiens, A549, 120 h, A549 (KRAS G12S mutant) 3D spheroid, 5 days with compound, CellTiter-Glo.
[5] abbreviates: NCI-H358 (KRAS G12C mutant) 3D spheroid, 5 days with compound, CellTiter-Glo.
The mark [6] stands for this setting: A549 (KRAS G12S mutant) 3D spheroid, 5 days with compound, CellTiter-Glo.

Like-named read-outs stand apart in the source and are kept apart here.

For `C=CC(=O)N1CCN2C(=O)c3c(N4CCOC5CC54)nc(-c4c(O)cccc4F)c(Cl)c3OC[C@H]2C1` (stereo partly drawn) [Z76, (6aR)-8-acryloyl-4-chloro-1-(2-oxa-5-azabicyclo[4.1.0]heptan-5-yl)-3-(2-fluoro-6-hydroxyphenyl)-6,6a,7,8,9,10-hexahydro-12H-pyrazino[2,1-c]pyrido[3,4-f][1,4]oxazepin-12-one], the IC50 in assay [1] (setting [3]) was 22 nM; in assay [2] (setting [4]), > 1 µM.
The matching figures for `C=CC(=O)N1CCN2C(=O)c3c(N4CC(=O)N(C)CC4C)nc(-c4c(O)cccc4F)c(Cl)c3OC[C@H]2C1` (stereo partly drawn) [Z221, (6aR)-8-acryloyl-4-chloro-1-(2,4-dimethyl-5-oxopiperazin-1-yl)-3-(2-fluoro-6-hydroxyphenyl)-6,6a,7,8,9,10-hexahydro-12H-pyrazino[2,1-c]pyrido[3,4-f][1,4]oxazepin-12-one]: 3 nM and 20.1 µM.
With `C=CC(=O)N1CCN2C(=O)c3c(N4CCN(C)[C@H](C)C4)nc(-c4c(O)cccc4F)c(Cl)c3OC[C@H]2C1` [Z235, (6aR)-8-acryloyl-4-chloro-1-((R)-3,4-dimethylpiperazin-1-yl)-3-(2-fluoro-6-hydroxyphenyl)-6,6a,7,8,9,10-hexahydro-12H-pyrazino[2,1-c]pyrido[3,4-f][1,4]oxazepin-12-one], the IC50 in assay [1] (setting [3]) is 21 nM; in assay [2] (setting [4]), 9.48 µM.
With `C=CC(=O)N1CCN2C(=O)c3c(N4CCN(CC)C[C@@H]4C)nc(-c4c(O)cccc4F)c(Cl)c3OC[C@H]2C1` [Z236], the IC50 in assay [1] (Homo sapiens, NCI-H358, 120 h) was 5.8 nM; in assay [2] (Homo sapiens, A549, 120 h) it was 9.58 µM.
On to `C=CC(=O)N1CCN2C(=O)c3c(N4CC(O)CC4(C)C)nc(-c4c(O)cccc4F)c(F)c3OC[C@H]2C1` (stereo partly drawn) [Z256, (6aR)-8-acryloyl-4-fluoro-3-(2-fluoro-6-hydroxyphenyl)-1-(4-hydroxy-2,2-dimethylpyrrolidin-1-yl)-6,6a,7,8,9,10-hexahydro-12H-pyrazino[2,1-c]pyrido[3,4-f][1,4]oxazepin-12-one], for which the half-inhibitory concentration (IC50) was found to be 5 nM in assay [1] (setting [3]) and 13.9 µM in assay [2] (setting [4]).
As to `C=CC(=O)N1CCN2C(=O)c3c(N4CCN(CCO)C[C@@H]4C)nc(-c4c(O)cccc4F)c(Cl)c3OC[C@H]2C1` [Z257, (6aR)-8-acryloyl-4-chloro-3-(2-fluoro-6-hydroxyphenyl)-1-((S)-4-(2-hydroxyethyl)-2-methylpiperazin-1-yl)-6,6a,7 ,8,9,10-hexahydro-12H-pyrazino[2,1-c]pyrido[3,4-f][1,4]oxazepin-12-one], the IC50 in assay [1] (setting [3]) is 10.2 nM; in assay [2] (setting [4]), > 30 µM.
With `C=CC(=O)N1CCN2C(=O)c3c(N4C[C@@H](O)C[C@@H]4C)nc(-c4c(O)cccc4F)c(Cl)c3OC[C@H]2C1` [Z260, (6aR)-8-acryloyl-4-chloro-3-(2-fluoro-6-hydroxyphenyl)-1-((2S,4S)-4-hydroxy-2-methylpyrrolidin-1-yl)-6,6a,7,8,9,10-hexahydro-12H-pyrazino[2,1-c]pyrido[3,4-f][1,4]oxazepin-12-one], the half-maximal inhibitory concentration (IC50) in assay [1] (setting [3]) stood at 5 nM; in assay [2] (setting [4]) it was 27.8 µM.
As for `C=CC(=O)N1CCN2C(=O)c3c(N4CCN(C)C(C)(C)C4)nc(-c4c(O)cccc4F)c(Cl)c3OC[C@H]2C1` [Z261, (6aR)-8-acryloyl-4-chloro-3-(2-fluoro-6-hydroxyphenyl)-1-(3,3,4-trimethylpiperazin-1-yl)-6,6a,7,8,9,10-hexahydro-12H-pyrazino[2,1-c]pyrido[3,4-f][1,4]oxazepin-12-one], the IC50 in assay [1] (setting [3]) came to 6.6 nM; in assay [2] (setting [4]) it was 8.89 µM.
With `C=CC(=O)N1CCN2C(=O)c3c(N4CCN(C)C(C)C4C)nc(-c4c(O)cccc4F)c(Cl)c3OC[C@H]2C1` (stereo partly drawn) [Z308a, (6aR)-8-acryloyl-4-chloro-3-(2-fluoro-6-hydroxyphenyl)-1-(2,3,4-trimethylpiperazin-1-yl)-6,6a,7,8,9,10-hexahydro-12H-pyrazino[2,1-c]pyrido[3,4-f][1,4]oxazepin-12-one], the 50% inhibitory concentration (IC50) in assay [1] (setting [5]) is 4.1 nM; in assay [2] (setting [6]), 7.1 µM.
On the same counts, the results for `C=CC(=O)N1CCN2C(=O)c3c(C4NCCN5C(=O)CCC45C)nc(-c4c(O)cccc4F)c(Cl)c3OC[C@H]2C1` (stereo partly drawn) [Z337, (6aR)-8-acryloyl-4-chloro-3-(2-fluoro-6-hydroxyphenyl)-1-(8a-methylhexahydropyrrolo[1,2-a]pyrazin-6 (2H)-one-1-yl)-6,6a,7,8,9,10-hexahydro-12H-pyrazino[2,1-c]pyrido[3,4-f][1,4]oxazepin-12-one] are 15 nM and > 30 µM.
On to `C=CC(=O)N1CCN2C(=O)c3c(N4CC(N(C)CC(F)F)CC4(C)C)nc(-c4ccccc4F)c(Cl)c3OC[C@H]2C1` (stereo partly shown) [Z659], for which the IC50 in assay [1] (setting [5]) stood at 1.8 nM; in assay [2] (setting [6]), 5.46 µM.

Source of the values: US20230203060A1 (GENFLEET THERAPEUTICS (SHANGHAI) INC., priority 2020, published 2023).
